Laboratory results taken from US20120059051A1, “ORAL COMPOSITION CONTAINING EGCG AND LYCOPENE” (DSM IP ASSET B.V., priority 2006, published 2012).

Columns and labels:
[1] = system: MMP-1; experiment: Inhibition of UV-A induced expression of matrix metalloproteinase-1 (real time PCR) in primary human dermal fibroblasts; type: cell-based; details: skin fibroblasts; for % inhibition: inhibition of UV-A induced MMP-1 expression, 30 J/cm^2 UVA1; for MMP-1 expression relative to UV-A only treated cells: 30 J/cm^2 UVA1, MMP-1 RNA 24 hrs after irradiation, UV-A only = 100%
Procedure: Primary human dermal fibroblasts were cultured in EMEM without glutamine (Earle's Minimum Essential Medium), supplemented with antibiotics/antimycotics, 2 mM L-glutamine and 7.5% fetal calf serum at 37° C.[…] and grown to 100% confluency. Forty-eight hours prior to irradiation the cells were preincubated with the desired substances in EMEM (with AB/AM, L-Glutamine and 2% FCS. After 24 hours the medium was replaced by fresh medium with substances (fresh prepared). For irradiation, the medium was removed and after 6 wash steps with phosphate-buffered saline (PBS) replaced by phosphate-buffered saline (PBS). The plate was then exposed to 30 J/cm^2 UVA1. The UVA1 output was approximately 150 mW/cm^2. After irradiation the phosphate-buffered saline in the cell microplate was exchanged against culture medium (+7.5% FCS) with the substances (fresh prepared) and the cells were incubated in a CO2-incubator for further 24 hrs (MMP-1 determination). The culture medium was removed, the cells were rinsed with phosphate-buffered saline and the whole plate was frozen in liquid nitrogen. Total RNA was isolated using RNeasy Total RNA Kits (Qiagen, Hilden; Germany). The RNA concentration was determined via photometric measurement at 260/280. Aliquots of total RNA (75 ng) were applied for cDNA-Synthesis using Superscript™ First-Strand synthesis system for RT-PCR. Two samples for each compound were analyzed. The PCR reactions were carried out on an Opticon 1 (MJ Research, Waltham, Mass., USA) using SYBR Green® PCR Master Mix (Applied Biosystems, Darmstadt, Germany). For comparison of relative expression in real time PCR control cells and treated cells the 2 ^(−delta delta C(T)) method was used.

[2] = system: UVA-induced MMPI; details: literature statement; increase only prevented in combination with vitamin E; cited from earlier work
[3] = system: skin collagenases; details: literature statement; cited from earlier work
[4] = system: UVA-induced collagenases; details: literature statement; cited from earlier work

| Molecule | % inhibition [1] | MMP-1 expression relative to UV-A only treated cells [1] | effect on UVA-induced MMPI [2] | effect on various skin collagenases [3] | effect on UVA-induced collagenases [4] |
| --- | --- | --- | --- | --- | --- |
| CC(C)=CCC/C(C)=C/C=C/C(C)=C/C=C/C(C)=C/C=C/C=C(C)/C=C/C=C(C)/C=C/C=C(\C)CCC=C(C)C [Lycopene, lycopene] | 65% | 35% | further increase | – | – |
| (−)-epigallocatechin gallate [EGCG] | 13% | 87% | – | suppress | – |
| CC1=C(/C=C/C(C)=C/C=C/C(C)=C/C=C/C=C(C)/C=C/C=C(C)/C=C/C2=C(C)CCCC2(C)C)C(C)(C)CCC1 [betacarotene] | – | – | – | – | repress |
